What was measured:
[1] = system: late watergrass; assay: Test Example 1: herbicidal activity, application before weed generation under submerged conditions (Table 16, symbol A); assay type: in vivo, late watergrass (Echinochloa oryzicola); conditions: amount of applied herbicide 320 g/ha
In short: (§1)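 Emulsion formulation, water-diluted to set dose, was put onto the flooded surface (4 cm depth, alluvial soil) the same day weeds were sown and 2.5-leaf rice transplanted. After 3 weeks at 25-30 °C under glass, each species was rated 0 (≤5% kill) to 5 (≥90% kill).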

[2] = system: Japanese bulrush; assay: Test Example 1: herbicidal activity, application before weed generation under submerged conditions (Table 16, symbol B); assay type: in vivo, Japanese bulrush (Schoenoplectus juncoides); conditions: amount of applied herbicide 320 g/ha
In short: as §1

[3] = system: oval-leafed pondweed; assay: Test Example 1: herbicidal activity, application before weed generation under submerged conditions (Table 16, symbol C); assay type: in vivo, oval-leafed pondweed (Monochoria vaginalis); conditions: amount of applied herbicide 320 g/ha
In short: as §1

[4] = system: barnyard grass; assay: Test Example 3: herbicidal effect by foliage application, Wagner pot (Table 18, symbol H); assay type: in vivo, barnyard grass (Echinochloa crus-galli)
In short: (§2)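 Plants were sown in alluvial soil held under 0.1–0.5 cm standing water and grown 14 days in a greenhouse at 25–30 °C. An emulsifiable formulation, water-diluted to the set dose, was then sprayed onto the foliage, and effects were scored three weeks later using previously defined criteria.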

[5] = system: Chinese sprangletop; assay: Test Example 3: herbicidal effect by foliage application, Wagner pot (Table 18, symbol D); assay type: in vivo, chinese sprangletop (Leptochloa chinensis)
In short: as §2

[6] = system: rice flat sedge; assay: Test Example 3: herbicidal effect by foliage application, Wagner pot (Table 18, symbol E); assay type: in vivo, rice flat sedge (Cyperus iria)
In short: as §2

[7] = system: southern crabgrass; assay: Test Example 4: herbicidal effect by soil treatment (Table 19, symbol F); assay type: in vivo, southern crabgrass (Digitaria ciliaris); conditions: amount of applied herbicide 320 g/ha
In short: (§3)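 Step 1: sow seeds in sterilized diluvial soil, cover ~1.5 cm. Step 2: spray diluted emulsion onto soil surface at predetermined rate. Step 3: greenhouse, 25–30° C, three weeks. Step 4: grade effect on each plant by earlier criteria.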

[8] = system: green foxtail; assay: Test Example 4: herbicidal effect by soil treatment (Table 19, symbol G); assay type: in vivo, green foxtail (Setaria viridis); conditions: amount of applied herbicide 320 g/ha
In short: as §3

[9] = system: barnyard grass; assay: Test Example 4: herbicidal effect by soil treatment (Table 19, symbol H); assay type: in vivo, barnyard grass (Echinochloa crus-galli); conditions: amount of applied herbicide 320 g/ha
In short: as §3

[10] = system: wild oat; assay: Test Example 4: herbicidal effect by soil treatment (Table 19, symbol I); assay type: in vivo, wild oat (Avena fatua); conditions: amount of applied herbicide 320 g/ha
In short: as §3

[11] = system: blackgrass; assay: Test Example 4: herbicidal effect by soil treatment (Table 19, symbol J); assay type: in vivo, blackgrass (Alopecurus myosuroides); conditions: amount of applied herbicide 320 g/ha
In short: as §3

[12] = system: Italian ryegrass; assay: Test Example 4: herbicidal effect by soil treatment (Table 19, symbol K); assay type: in vivo, Italian ryegrass (Lolium multiflorum); conditions: amount of applied herbicide 320 g/ha
In short: as §3

[13] = system: windgrass; assay: Test Example 4: herbicidal effect by soil treatment (Table 19, symbol L); assay type: in vivo, windgrass (Apera spica-venti); conditions: amount of applied herbicide 320 g/ha
In short: as §3

[14] = system: velvetleaf; assay: Test Example 4: herbicidal effect by soil treatment (Table 19, symbol M); assay type: in vivo, velvetleaf (Abutilon theophrasti); conditions: amount of applied herbicide 320 g/ha
In short: as §3

[15] = system: redroot pigweed; assay: Test Example 4: herbicidal effect by soil treatment (Table 19, symbol N); assay type: in vivo, redroot pigweed (Amaranthus retroflexus); conditions: amount of applied herbicide 320 g/ha
In short: as §3

[16] = system: lambsquarters; assay: Test Example 4: herbicidal effect by soil treatment (Table 19, symbol O); assay type: in vivo, lambsquarters (Chenopodium album); conditions: amount of applied herbicide 320 g/ha
In short: as §3

[17] = system: chickweed; assay: Test Example 4: herbicidal effect by soil treatment (Table 19, symbol P); assay type: in vivo, common chickweed (Stellaria media); conditions: amount of applied herbicide 320 g/ha
In short: as §3

[18] = system: false cleavers; assay: Test Example 4: herbicidal effect by soil treatment (Table 19, symbol Q); assay type: in vivo, false cleavers (Galium spurium); conditions: amount of applied herbicide 320 g/ha
In short: as §3

[19] = system: persian speedwell; assay: Test Example 4: herbicidal effect by soil treatment (Table 19, symbol R); assay type: in vivo, Persian speedwell (Veronica persica); conditions: amount of applied herbicide 320 g/ha
In short: as §3

[20] = system: southern crabgrass; assay: Test Example 5: herbicidal effect by foliage application, plastic box (Table 20, symbol F); assay type: in vivo, southern crabgrass (Digitaria ciliaris); conditions: foliage application, 320 g/ha, three weeks after application
In short: (§4)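 Foliar spray test: emulsion formulation diluted in water to a set application rate, sprayed onto 14-day-old plants raised in diluvial soil at 25° C to 30° C under glass. Both herbicidal effect and crop effect rated visually three weeks later.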

[21] = system: green foxtail; assay: Test Example 5: herbicidal effect by foliage application, plastic box (Table 20, symbol G); assay type: in vivo, green foxtail (Setaria viridis); conditions: foliage application, 320 g/ha, three weeks after application
In short: as §4

[22] = system: barnyard grass; assay: Test Example 5: herbicidal effect by foliage application, plastic box (Table 20, symbol H); assay type: in vivo, barnyard grass (Echinochloa crus-galli); conditions: foliage application, 320 g/ha, three weeks after application
In short: as §4

[23] = system: wild oat; assay: Test Example 5: herbicidal effect by foliage application, plastic box (Table 20, symbol I); assay type: in vivo, wild oat (Avena fatua); conditions: foliage application, 320 g/ha, three weeks after application
In short: as §4

[24] = system: blackgrass; assay: Test Example 5: herbicidal effect by foliage application, plastic box (Table 20, symbol J); assay type: in vivo, blackgrass (Alopecurus myosuroides); conditions: foliage application, 320 g/ha, three weeks after application
In short: as §4

[25] = system: Italian ryegrass; assay: Test Example 5: herbicidal effect by foliage application, plastic box (Table 20, symbol K); assay type: in vivo, Italian ryegrass (Lolium multiflorum); conditions: foliage application, 320 g/ha, three weeks after application
In short: as §4

[26] = system: windgrass; assay: Test Example 5: herbicidal effect by foliage application, plastic box (Table 20, symbol L); assay type: in vivo, windgrass (Apera spica-venti); conditions: foliage application, 320 g/ha, three weeks after application
In short: as §4

[27] = system: velvetleaf; assay: Test Example 5: herbicidal effect by foliage application, plastic box (Table 20, symbol M); assay type: in vivo, velvetleaf (Abutilon theophrasti); conditions: foliage application, 320 g/ha, three weeks after application
In short: as §4

[28] = system: lambsquarters; assay: Test Example 5: herbicidal effect by foliage application, plastic box (Table 20, symbol O); assay type: in vivo, lambsquarters (Chenopodium album); conditions: foliage application, 320 g/ha, three weeks after application
In short: as §4

[29] = system: persian speedwell; assay: Test Example 5: herbicidal effect by foliage application, plastic box (Table 20, symbol R); assay type: in vivo, Persian speedwell (Veronica persica); conditions: foliage application, 320 g/ha, three weeks after application
In short: as §4

[30] = amount of applied herbicide 320 g/ha

Structure (SMILES) | Herbicidal effect, A: late watergrass [1] | Herbicidal effect, B: Japanese bulrush [2] | Herbicidal effect, C: oval-leafed pondweed [3] | F: southern crabgrass, herbicidal effect grade [7] | G: green foxtail, herbicidal effect grade [8] | H: barnyard grass, herbicidal effect grade [9] | I: wild oat, herbicidal effect grade [10] | J: blackgrass, herbicidal effect grade [11] | K: Italian ryegrass, herbicidal effect grade [12] | L: windgrass, herbicidal effect grade [13] | M: velvetleaf, herbicidal effect grade [14] | N: redroot pigweed, herbicidal effect grade [15] | O: lambsquarters, herbicidal effect grade [16] | P: chickweed, herbicidal effect grade [17] | Q: false cleavers, herbicidal effect grade [18] | R: persian speedwell, herbicidal effect grade [19] | herbicidal effect on southern crabgrass (F) [20] | herbicidal effect on green foxtail (G) [21] | herbicidal effect on barnyard grass (H) [22] | herbicidal effect on wild oat (I) [23] | other results
Cc1nn(C)c(=O)c(-c2c(-c3ccc(OC(F)F)cc3)sc3cc(F)c(F)cc23)c1O [5-084] | 3 (Herbicidal rate of 40% or more and less than 70%) | 2 (Herbicidal rate of 20% or more and less than 40%) | 0 (Herbicidal rate of 5% or less (almost no effect)) | 0 (Herbicidal rate of 5% or less (almost no effect)) | 2 (Herbicidal rate of 20% or more and less than 40%) | 1 (Herbicidal rate of 5% or more and less than 20%) | 0 (Herbicidal rate of 5% or less (almost no effect)) | 0 (Herbicidal rate of 5% or less (almost no effect)) | 0 (Herbicidal rate of 5% or less (almost no effect)) | 5 (Herbicidal rate of 90% or more (almost completely withered)) | 4 (Herbicidal rate of 70% or more and less than 90%) | 5 (Herbicidal rate of 90% or more (almost completely withered)) | 5 (Herbicidal rate of 90% or more (almost completely withered)) | 0 (Herbicidal rate of 5% or less (almost no effect)) | 2 (Herbicidal rate of 20% or more and less than 40%) | 3 (Herbicidal rate of 40% or more and less than 70%) | 4 (Herbicidal rate of 70% or more and less than 90%) | 4 (Herbicidal rate of 70% or more and less than 90%) | 2 (Herbicidal rate of 20% or more and less than 40%) | 3 (Herbicidal rate of 40% or more and less than 70%) | herbicidal effect on barnyard grass (H) ([4]; 320 g/ha): 4 (Herbicidal rate of 70% or more and less than 90%); herbicidal effect on Chinese sprangletop (D) ([5]; 320 g/ha): 0 (Herbicidal rate of 5% or less (almost no effect)); herbicidal effect on rice flat sedge (E) ([6]; 320 g/ha): 3 (Herbicidal rate of 40% or more and less than 70%); herbicidal effect on blackgrass (J) [24]: 4 (Herbicidal rate of 70% or more and less than 90%); herbicidal effect on Italian ryegrass (K) [25]: 5 (Herbicidal rate of 90% or more (almost completely withered)); herbicidal effect on windgrass (L) [26]: 5 (Herbicidal rate of 90% or more (almost completely withered)); herbicidal effect on velvetleaf (M) [27]: 5 (Herbicidal rate of 90% or more (almost completely withered)); herbicidal effect on lambsquarters (O) [28]: 5 (Herbicidal rate of 90% or more (almost completely withered)); herbicidal effect on persian speedwell (R) [29]: 5 (Herbicidal rate of 90% or more (almost completely withered))
Cc1nn(C)c(=O)c(-c2c(-c3ccc(OCC(F)(F)F)cc3)oc3ccc(F)cc23)c1O [9-035] | 2 (Herbicidal rate of 20% or more and less than 40%) | 0 (Herbicidal rate of 5% or less (almost no effect)) | 0 (Herbicidal rate of 5% or less (almost no effect)) | 5 (Herbicidal rate of 90% or more (almost completely withered)) | 5 (Herbicidal rate of 90% or more (almost completely withered)) | 5 (Herbicidal rate of 90% or more (almost completely withered)) | 2 (Herbicidal rate of 20% or more and less than 40%) | 5 (Herbicidal rate of 90% or more (almost completely withered)) | 5 (Herbicidal rate of 90% or more (almost completely withered)) | 5 (Herbicidal rate of 90% or more (almost completely withered)) | 4 (Herbicidal rate of 70% or more and less than 90%) | 5 (Herbicidal rate of 90% or more (almost completely withered)) | 5 (Herbicidal rate of 90% or more (almost completely withered)) | 5 (Herbicidal rate of 90% or more (almost completely withered)) | 3 (Herbicidal rate of 40% or more and less than 70%) | 5 (Herbicidal rate of 90% or more (almost completely withered)) | 5 (Herbicidal rate of 90% or more (almost completely withered)) | 5 (Herbicidal rate of 90% or more (almost completely withered)) | 5 (Herbicidal rate of 90% or more (almost completely withered)) | 5 (Herbicidal rate of 90% or more (almost completely withered)) | Herbicidal effect on H (barnyard grass), foliage application [4, 30]: 5 (Herbicidal rate of 90% or more (almost completely withered)); Herbicidal effect on D (Chinese sprangletop), foliage application [5, 30]: 3 (Herbicidal rate of 40% or more and less than 70%); Herbicidal effect on E (rice flat sedge), foliage application [6, 30]: 5 (Herbicidal rate of 90% or more (almost completely withered)); herbicidal effect on blackgrass (J) [24]: 5 (Herbicidal rate of 90% or more (almost completely withered)); herbicidal effect on Italian ryegrass (K) [25]: 5 (Herbicidal rate of 90% or more (almost completely withered)); herbicidal effect on windgrass (L) [26]: 5 (Herbicidal rate of 90% or more (almost completely withered)); herbicidal effect on velvetleaf (M) [27]: 5 (Herbicidal rate of 90% or more (almost completely withered)); herbicidal effect on lambsquarters (O) [28]: 4 (Herbicidal rate of 70% or more and less than 90%); herbicidal effect on persian speedwell (R) [29]: 5 (Herbicidal rate of 90% or more (almost completely withered))

From patent US20230085307A1, “PYRIDAZINONE COMPOUND AND HERBICIDE” (NISSAN CHEMICAL CORPORATION, priority 2019, published 2023)
